Earlier results on two molecules are cited in patent publication US20250288540A1, “METHODS AND COMPOSITIONS FOR PAIN MANAGEMENT” (SILO PHARMA, INC., priority 2024, published 2025).

Series [1] concerns N-methyl-D-aspartate (NMDA) receptor.
Series [2] relates to halothane requirements (MAC). The settings on record: rat.

With `CNC1(c2ccccc2Cl)CCCCC1=O.Cl` (centres unmarked) [Ketamine hydrochloride, 2-(2-chlorophenyl)-2-(methylamino) cyclohexan-1-one hydrochloride], the solubility in ethanol (ethanol) is on record as around 750 mg/mL. Under “ether”, the solubility in ether result was “practically insoluble”. Also, the solubility in methanol result (methanol) is listed as “freely soluble”.

Take `NC1(c2ccccc2Cl)CCCCC1=O` (centres unmarked) [Norketamine]: the “affinity at the NMDA receptor compared with ketamine” value in series [1] was “less affinity”. In addition, in series [2], the “activity relative to ketamine in reducing halothane requirements (MAC)” value is on record as “about ⅓”.
